By inhibition is commonly meant the drop in the measured response relative to a control, in per cent.

What all share (type): biochemical
One assay addresses T1, PI3 K γ (Homo sapiens, UniProt P48736).
T1 construct: purchased Biology, Medicilon
In words: Inhibitory activity to PI3K γ, PI 3-Kinase (human) HTRF Assay kit. The following applies: read-out: Inhibition rate % to PI3 K γ. An excerpt: (§1) Study on the inhibitory activity of the compounds of present invention to PI 3κα, PI3κδ and PI3κγ. Two or three concentrations of the compounds are selected to preliminary screening to calculate respectively the activity inhibition rate of the compounds of corresponding concentrations to enzyme, then the compounds with better activity are selected by preliminary screening for IC50 test.
(§2) PI 3-Kinase (human) HTRF™ Assay kit (Cat.33-017, Millipore)
PI 3k γ (Biology, Medicilon)
(§3) 4× Reaction Buffer (Cat.33-002, Millipore) is diluted with ddH2O to 1.33×, and 1M DTT is added to make the final concentration as 6.67 mM. For example, 10 μL DTT is added into 500 μL 4× Reaction Buffer, and water is added to 1.5 mL.
(§4) The Test compounds are dissolved with DMSO to 1 mM as storage liquid. 2 μL of each of storage liquid is added into 48 μL ddH2O, to obtain the 40 μM compounds solution containing 4% DMSO. After mixing, 3 μL of each of the solution is added into 27 μL 4% DMSO (in ddH2O) to obtain the 4 μM compounds solution. 5 μL of each dilute solution is added into 384-well plates, then the final concentration of the compounds in the 20 μL final kinase reaction system is 10 μM and 1 μM respectively contained 1% DMSO. The dilution methods of compounds are similar to the preliminary screening in IC50 test.
(§5) 2×PIP2 working fluid is prepared with 1.33× reaction buffer to the final concentration of 20 μM.
The screening concentration of PI 3k γ kinase: 80 ng/well,
(§6) Kinase is diluted with 2×PIP2 operating fluid, the concentration of kinase operating fluid is 2 times of screening concentration.
(§7) 10 mM ATP is diluted with 1.33× reaction buffer to 400 μM. The concentration of ATP is 100 μM in 20 μL kinase reaction system.
(§8) Stop A and Stop B are mixed according to the proportion of 3:1, and are placed for 2 hours at room temperature to obtain the stop solution available.
(§9) DM C, DM A and DM B are mixed according to the proportion of 18:1:1, and are placed for 2 hours at room temperature to obtain the detection solution available.
A general note: In TR-FRET formats the signal depends on donor and acceptor labels being close together.

For the next assay, the target named is T2, PI3Kδ (Homo sapiens, UniProt O00329).
T2 construct: purchased Millipore 14-604
In words: Inhibitory activity to PI3K δ, PI 3-Kinase (human) HTRF Assay kit. The following applies: read-out: Inhibition rate % to PI3Kδ; for inhibition at 1 µM: 1 μM (Table 7); for inhibition at 10 µM: 10 μM (Table 7). How it is done: Study on the inhibitory activity of the compounds of present invention to PI 3κα, PI3κδ and PI3κγ.
as §2
For example, 10 μL DTT is added into 500 μL 4× Reaction Buffer, and water is added to 1.5 mL.
The Test compounds are dissolved with DMSO to 1 mM as storage liquid. 2 μL of each of storage liquid is added into 48 μL ddH2O, to obtain the 40 μM compounds solution containing 4% DMSO. After mixing, 3 μL of each of the solution is added into 27 μL 4% DMSO (in ddH2O) to obtain the 4 μM compounds solution. […]
The screening concentration of PI 3k δ kinase: 2 ng/well,
as §6
The concentration of ATP is 100 μM in 20 μL kinase reaction system.
as §8, §9

A further assay addresses T3, PDGFR β enzyme (Homo sapiens, UniProt P09619).
T3 construct: purchased Invitrogen P3082
In words: Inhibitory activity to PDGFR β enzyme, HTRF kinEASE TK kit. The conditions noted are these: read-out: Inhibition rate % (PDGFR β). As to the method:
HTRF kinEASE TK (Cat.62TK0PEC, Cisbio)
PDGFR β enzyme (Cat.P3082, Invitrogen)
1 mL 1×Kinase Buffer includes 200 μL 5×Enzyme buffer, 5 μL 1M MgCl2, 1 μL 1M DTT, 1 μL 1M MnCl2, 20 μL 2500 nM SEB, 773 μL ddH2O.
TK-Substrate and ATP are diluted to 2.5 times of reaction concentration with 1×PDGFR β Kinase Buffer.
5×PDGFR β enzyme working solution is prepared with 1×PDGFR β kinase buffer.
4×Sa-XL665 working solution is prepared with Detection Buffer.
TK-Ab-Cryptate is diluted 100 times with Detection Buffer to use as working solution.

Another assay deals with T4, PI3K α (Homo sapiens, UniProt P42336).
T4 construct: purchased Millipore 14-602
In words: Inhibitory activity to PI3K α, PI 3-Kinase (human) HTRF Assay kit. The conditions noted are these: read-out: % Inhibition Rate to PI3K α.
From the text: as §1, §2
PI 3k α (Cat.14-602, Millipore)
as §3, §4, §5
The screening concentration of PI 3k α kinase: 8 ng/well,
as §6, §7, §8, §9

T2 sequence (O00329 whole entry): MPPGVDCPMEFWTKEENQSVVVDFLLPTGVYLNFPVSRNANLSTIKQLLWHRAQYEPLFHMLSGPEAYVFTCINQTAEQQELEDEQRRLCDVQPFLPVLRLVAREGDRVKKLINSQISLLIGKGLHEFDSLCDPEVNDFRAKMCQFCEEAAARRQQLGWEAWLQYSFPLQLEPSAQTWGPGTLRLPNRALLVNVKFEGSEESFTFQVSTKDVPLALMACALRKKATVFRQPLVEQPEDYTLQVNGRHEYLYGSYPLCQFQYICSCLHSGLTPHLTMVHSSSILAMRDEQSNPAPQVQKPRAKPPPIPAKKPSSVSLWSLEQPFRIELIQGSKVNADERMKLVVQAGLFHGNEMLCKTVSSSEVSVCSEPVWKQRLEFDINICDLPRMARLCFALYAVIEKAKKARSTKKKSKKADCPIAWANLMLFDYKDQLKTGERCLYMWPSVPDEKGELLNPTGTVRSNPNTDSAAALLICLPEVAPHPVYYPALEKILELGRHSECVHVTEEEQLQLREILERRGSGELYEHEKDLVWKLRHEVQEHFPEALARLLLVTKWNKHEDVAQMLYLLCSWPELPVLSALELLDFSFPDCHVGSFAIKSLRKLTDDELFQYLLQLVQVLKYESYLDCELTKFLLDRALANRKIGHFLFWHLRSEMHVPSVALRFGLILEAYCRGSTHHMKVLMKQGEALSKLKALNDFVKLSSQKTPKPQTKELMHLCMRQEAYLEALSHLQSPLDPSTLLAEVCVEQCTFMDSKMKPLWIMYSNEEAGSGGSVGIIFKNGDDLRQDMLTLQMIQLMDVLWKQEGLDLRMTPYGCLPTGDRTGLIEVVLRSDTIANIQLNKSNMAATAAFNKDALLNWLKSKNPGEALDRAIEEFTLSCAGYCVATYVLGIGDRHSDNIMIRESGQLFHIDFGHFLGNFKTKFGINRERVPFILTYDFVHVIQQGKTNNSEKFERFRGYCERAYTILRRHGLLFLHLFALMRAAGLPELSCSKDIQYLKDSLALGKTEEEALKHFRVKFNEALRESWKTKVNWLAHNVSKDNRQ
T2 sequence (P27986 whole entry partner): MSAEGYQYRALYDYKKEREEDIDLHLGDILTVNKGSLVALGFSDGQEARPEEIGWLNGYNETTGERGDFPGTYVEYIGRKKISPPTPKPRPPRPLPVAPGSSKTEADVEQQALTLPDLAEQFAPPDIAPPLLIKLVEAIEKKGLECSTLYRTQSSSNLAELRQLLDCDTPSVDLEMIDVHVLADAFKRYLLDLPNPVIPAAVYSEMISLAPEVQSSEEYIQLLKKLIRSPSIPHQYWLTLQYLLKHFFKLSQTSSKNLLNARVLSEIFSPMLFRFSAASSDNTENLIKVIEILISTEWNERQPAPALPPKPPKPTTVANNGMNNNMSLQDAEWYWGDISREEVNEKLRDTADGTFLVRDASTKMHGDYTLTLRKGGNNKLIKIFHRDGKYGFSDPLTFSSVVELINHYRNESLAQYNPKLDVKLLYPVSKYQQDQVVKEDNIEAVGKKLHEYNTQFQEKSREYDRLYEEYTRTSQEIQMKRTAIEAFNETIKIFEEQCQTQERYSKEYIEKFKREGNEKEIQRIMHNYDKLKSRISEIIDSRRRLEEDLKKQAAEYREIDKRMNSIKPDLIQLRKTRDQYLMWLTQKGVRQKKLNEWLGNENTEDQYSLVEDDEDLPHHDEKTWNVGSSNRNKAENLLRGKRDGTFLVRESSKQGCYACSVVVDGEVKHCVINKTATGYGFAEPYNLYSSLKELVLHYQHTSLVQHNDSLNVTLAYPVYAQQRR
T1 sequence (P48736 whole entry): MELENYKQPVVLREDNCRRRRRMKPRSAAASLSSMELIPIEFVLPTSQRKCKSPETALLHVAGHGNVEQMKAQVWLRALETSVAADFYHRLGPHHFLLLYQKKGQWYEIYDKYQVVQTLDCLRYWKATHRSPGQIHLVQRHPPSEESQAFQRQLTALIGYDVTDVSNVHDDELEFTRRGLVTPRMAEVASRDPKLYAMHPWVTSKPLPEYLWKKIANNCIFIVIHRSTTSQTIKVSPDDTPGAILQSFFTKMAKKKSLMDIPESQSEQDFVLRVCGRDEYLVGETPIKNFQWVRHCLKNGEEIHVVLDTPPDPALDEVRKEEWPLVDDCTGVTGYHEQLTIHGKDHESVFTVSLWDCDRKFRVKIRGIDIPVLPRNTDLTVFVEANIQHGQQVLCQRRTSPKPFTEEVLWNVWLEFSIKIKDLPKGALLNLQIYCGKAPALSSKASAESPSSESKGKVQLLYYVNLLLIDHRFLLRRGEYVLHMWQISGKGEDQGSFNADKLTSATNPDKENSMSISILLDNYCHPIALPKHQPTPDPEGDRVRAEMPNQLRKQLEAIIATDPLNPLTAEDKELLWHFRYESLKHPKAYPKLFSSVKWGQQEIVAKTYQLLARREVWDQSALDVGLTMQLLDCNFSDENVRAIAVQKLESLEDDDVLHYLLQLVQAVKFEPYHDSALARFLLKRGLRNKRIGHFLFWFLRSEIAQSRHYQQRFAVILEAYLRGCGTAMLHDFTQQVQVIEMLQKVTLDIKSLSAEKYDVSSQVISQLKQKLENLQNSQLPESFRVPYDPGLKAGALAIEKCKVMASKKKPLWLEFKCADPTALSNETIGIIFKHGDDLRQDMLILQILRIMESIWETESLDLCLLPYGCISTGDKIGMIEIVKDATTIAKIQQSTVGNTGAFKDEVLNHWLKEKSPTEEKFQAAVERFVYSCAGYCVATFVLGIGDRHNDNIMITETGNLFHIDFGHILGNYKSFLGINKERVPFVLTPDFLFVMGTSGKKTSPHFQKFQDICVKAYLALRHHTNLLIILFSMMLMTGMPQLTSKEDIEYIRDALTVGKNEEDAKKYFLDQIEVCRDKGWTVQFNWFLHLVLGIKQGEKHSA
T4 sequence (P42336 whole entry): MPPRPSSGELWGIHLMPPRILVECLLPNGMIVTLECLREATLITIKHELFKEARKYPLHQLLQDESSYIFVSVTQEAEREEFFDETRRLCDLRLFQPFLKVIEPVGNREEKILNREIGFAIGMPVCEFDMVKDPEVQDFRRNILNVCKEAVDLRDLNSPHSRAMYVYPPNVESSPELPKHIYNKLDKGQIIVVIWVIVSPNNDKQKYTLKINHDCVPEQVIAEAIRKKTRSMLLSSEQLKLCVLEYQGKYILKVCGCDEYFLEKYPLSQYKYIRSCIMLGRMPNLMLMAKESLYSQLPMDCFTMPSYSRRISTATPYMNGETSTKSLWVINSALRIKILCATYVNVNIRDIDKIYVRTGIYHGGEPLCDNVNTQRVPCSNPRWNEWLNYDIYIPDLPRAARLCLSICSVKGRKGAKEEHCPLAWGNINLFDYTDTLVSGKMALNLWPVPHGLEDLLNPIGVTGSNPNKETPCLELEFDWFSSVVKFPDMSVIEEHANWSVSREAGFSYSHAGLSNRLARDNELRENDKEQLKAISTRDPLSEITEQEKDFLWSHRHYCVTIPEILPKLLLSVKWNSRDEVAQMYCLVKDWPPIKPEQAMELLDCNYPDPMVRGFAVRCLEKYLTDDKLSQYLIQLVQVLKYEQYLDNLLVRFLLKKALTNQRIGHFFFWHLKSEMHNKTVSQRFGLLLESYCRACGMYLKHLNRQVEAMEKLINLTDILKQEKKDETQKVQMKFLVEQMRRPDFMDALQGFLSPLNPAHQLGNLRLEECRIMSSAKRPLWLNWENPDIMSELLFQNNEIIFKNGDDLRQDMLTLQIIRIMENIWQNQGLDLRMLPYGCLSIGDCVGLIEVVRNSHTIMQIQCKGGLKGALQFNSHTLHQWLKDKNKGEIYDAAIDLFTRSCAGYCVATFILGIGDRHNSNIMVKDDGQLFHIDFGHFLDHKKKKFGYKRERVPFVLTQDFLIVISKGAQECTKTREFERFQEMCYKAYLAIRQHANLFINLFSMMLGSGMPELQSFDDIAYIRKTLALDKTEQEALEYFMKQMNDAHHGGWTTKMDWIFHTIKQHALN
T4 sequence (P27986 whole entry partner): as the sequence (P27986 whole entry partner) above
T3 sequence (P09619 33-1106): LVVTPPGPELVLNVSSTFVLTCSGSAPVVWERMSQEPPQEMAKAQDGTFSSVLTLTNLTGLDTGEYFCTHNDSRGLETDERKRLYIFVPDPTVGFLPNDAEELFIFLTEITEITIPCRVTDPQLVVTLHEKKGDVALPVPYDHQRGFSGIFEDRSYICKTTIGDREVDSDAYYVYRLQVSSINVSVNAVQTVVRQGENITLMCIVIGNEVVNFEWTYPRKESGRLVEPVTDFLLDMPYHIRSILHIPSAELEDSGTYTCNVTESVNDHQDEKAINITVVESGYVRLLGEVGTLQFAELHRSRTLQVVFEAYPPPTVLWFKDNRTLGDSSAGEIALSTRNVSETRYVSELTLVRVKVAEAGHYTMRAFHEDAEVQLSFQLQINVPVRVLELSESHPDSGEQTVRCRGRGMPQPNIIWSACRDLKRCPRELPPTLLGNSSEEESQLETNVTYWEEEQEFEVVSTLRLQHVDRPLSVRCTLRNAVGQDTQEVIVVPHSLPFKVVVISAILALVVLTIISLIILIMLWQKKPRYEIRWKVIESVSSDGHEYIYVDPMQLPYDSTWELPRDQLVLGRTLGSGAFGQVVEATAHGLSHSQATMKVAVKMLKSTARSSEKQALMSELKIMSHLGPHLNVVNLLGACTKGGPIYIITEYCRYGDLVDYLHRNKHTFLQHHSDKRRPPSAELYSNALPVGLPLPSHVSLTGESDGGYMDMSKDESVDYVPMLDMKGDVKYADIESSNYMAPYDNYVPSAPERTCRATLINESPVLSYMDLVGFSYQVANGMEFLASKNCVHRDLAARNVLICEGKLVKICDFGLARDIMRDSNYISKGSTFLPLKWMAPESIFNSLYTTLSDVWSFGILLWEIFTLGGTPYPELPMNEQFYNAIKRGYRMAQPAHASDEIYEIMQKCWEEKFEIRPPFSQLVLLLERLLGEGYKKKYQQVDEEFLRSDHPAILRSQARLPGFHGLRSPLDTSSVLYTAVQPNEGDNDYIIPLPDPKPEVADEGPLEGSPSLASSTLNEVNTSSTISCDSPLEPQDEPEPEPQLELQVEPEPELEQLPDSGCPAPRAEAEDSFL

For the compound `COC(=O)c1cccc(-c2ccnc3ccc(Nc4nc(NC5CC5)c5nc[nH]c5n4)cc23)c1` [MED1007-60, 4-(6-(6-(cyclopropylamino)-9H-purine-2-ylamino)quinoline-4-yl) m-methyl benzoate], the values for the inhibition at 1 µM on PI3 K γ, at PI3Kδ and at PDGFR β enzyme were -2.59%, -2.33% and -0.63%, respectively. For the same compound, the inhibition at 10 µM on PI3 K γ was found to be 4.45%; on PI3Kδ, 34.1%; at PDGFR β enzyme it was 10.6%.

In the case of `COc1cccc(-c2ccnc3ccc(Nc4nc(NC5CC5)c5nc[nH]c5n4)cc23)c1` [MED1007-61, N6-cyclopropyl-N2-(4-(3-methoxyphenyl)quinoline-6-yl)-9H-purine-2,6-diamine], the inhibition at 1 µM was -8.18% at PI3 K γ, 16.7% at PI3Kδ and 4.72% on PDGFR β enzyme. The inhibition at 10 µM on PI3 K γ is 20.4%; at PI3Kδ, 102%; at PDGFR β enzyme it was 55%.

`Fc1cccc(-c2ccnc3ccc(Nc4nc(NC5CC5)c5nc[nH]c5n4)cc23)c1` [MED1007-64, N6-cyclopropyl-N2-(4-(3-fluorophenyl)quinoline-6-yl)-9H-purine-2,6-diamine]: the inhibition at 1 µM on PI3 K γ is -4.23%; on PI3Kδ, 14.1%; on PDGFR β enzyme it was -3.26%. In addition, the values for the inhibition at 10 µM at PI3 K γ, at PI3Kδ and at PDGFR β enzyme were 15.9%, 88.7% and 20.1%, respectively.

In the case of `FC(F)(F)Cn1cnc2c(NC3CC3)nc(Nc3ccc4nccc(-c5ccccc5)c4c3)nc21` [MED1007-65, N6-cyclopropyl-N2-(4-phenylquinoline-6-yl)-9-(2,2,2-trifluoroethyl)-9H-purine-2,6-diamine], the inhibition at 1 µM on PI3 K γ was found to be 1.54%; on PI3Kδ, 7.48%; on PI3K α it was 0.69%; on PDGFR β enzyme, 21.5%. In addition, the inhibition at 10 µM at PI3 K γ amounted to 37.2%; on PI3Kδ it was 38.4%; on PI3K α, 10.2%; on PDGFR β enzyme, 14%.

As for `c1ccc(-c2ccnc3ccc(Nc4nc(NC5CC5)c5ncn(C6CCNCC6)c5n4)cc23)cc1` [MED1007-66, N6-cyclopropyl-N2-(4-phenylquinoline-6-yl)-9-(piperidine-4-yl)-9H-purine-2,6-diamine], the inhibition at 1 µM at PI3 K γ is 1.48%; on PI3Kδ, 4.75%; at PI3K α it was -2.28%; on PDGFR β enzyme, 17%. The inhibition at 10 µM is -2.46% on PI3 K γ, 19.8% on PI3Kδ, -4.35% on PI3K α and 14.5% at PDGFR β enzyme.

With `COCCCNc1nc(Nc2ccc3nccc(-c4ccccc4)c3c2)nc2[nH]cnc12` [MED1007-67, N6-(3-methoxypropyl)-N2-(4-phenylquinoline-6-yl)-9H-purine-2,6-diamine], the inhibition at 1 µM was found to be 0.71% on PI3 K γ, 11.3% at PI3Kδ, 3.77% at PI3K α and 22.2% at PDGFR β enzyme. Also, the inhibition at 10 µM at PI3 K γ was 10.2%; at PI3Kδ, 32%; at PI3K α, 37.2%; at PDGFR β enzyme, 18.7%.

As to `COCCNc1nc(Nc2ccc3nccc(-c4ccccc4)c3c2)nc2[nH]cnc12` [MED1007-68, N6-(2-methoxyethyl)-N2-(4-phenylquinoline-6-yl)-9H-purine-2,6-diamine], the inhibition at 1 µM is -0.02% on PI3 K γ, 20.7% at PI3Kδ, 7.74% on PI3K α and 18.7% on PDGFR β enzyme. Also, the inhibition at 10 µM on PI3 K γ turned out to be 10.8%; at PI3Kδ, 42.3%; at PI3K α, 51.9%; on PDGFR β enzyme, 11.7%.

As for `OCCNc1nc(Nc2ccc3nccc(-c4ccccc4)c3c2)nc2[nH]cnc12` [MED1007-69, 2-(2-(4-phenylquinoline-6-ylamino)-9H-purine-6-ylamino) ethanol], the inhibition at 1 µM at PI3 K γ amounted to 1.27%; at PI3Kδ, 28.9%; at PI3K α, 38.8%; at PDGFR β enzyme, 11.7%. Besides, the inhibition at 10 µM on PI3 K γ was 21.1%; on PI3Kδ, 36.4%; at PI3K α, 78.2%; on PDGFR β enzyme it was 31.8%.

On to `NCCNc1nc(Nc2ccc3nccc(-c4ccccc4)c3c2)nc2[nH]cnc12` [MED1007-70, N6-(2-aminoethyl 1)-N2-(4-phenylquinoline-6-yl)-9H-purine-2,6-diamine], for which the inhibition at 1 µM was found to be 5.26% on PI3 K γ, 41% on PI3Kδ, 26.6% at PI3K α and 33.4% at PDGFR β enzyme. Also, the inhibition at 10 µM on PI3 K γ was 10.8%; at PI3Kδ, 51.6%; at PI3K α it was 62.5%; on PDGFR β enzyme, 73%.

In the case of `COc1cccc(-c2ccnc3ccc(Nc4nc(NC5CCC5)c5nc[nH]c5n4)cc23)c1` [MED1007-71, N6-cyclobutyl-N2-(4-(3-methoxyphenyl)quinoline-6-yl)-9H-purine-2,6-diamine], the inhibition at 1 µM came to 2.55% at PI3 K γ, 24.4% at PI3Kδ, 10.4% at PI3K α and 9.74% on PDGFR β enzyme. For the same compound, the inhibition at 10 µM at PI3 K γ amounted to 47.4%; at PI3Kδ, 64.4%; on PI3K α, 75%; at PDGFR β enzyme it was 4.5%.

`Fc1ccc(-c2ccnc3ccc(Nc4nc(NC5CCC5)c5nc[nH]c5n4)cc23)cc1` [MED1007-72, N6-cyclobutyl-N2-(4-(4-fluorophenyl)quinoline-6-yl)-9H-purine-2,6-diamine]: the inhibition at 1 µM on PI3 K γ was 2.15%; on PI3Kδ, 33.9%; on PI3K α it was 8.78%; on PDGFR β enzyme it was 7.25%. Besides, the inhibition at 10 µM on PI3 K γ is 42.7%; at PI3Kδ, 89.5%; on PI3K α it was 65.9%; on PDGFR β enzyme, 2.5%.

In the case of `c1ccc(-c2ccnc3ccc(Nc4nc(NC5CCCC5)c5nc[nH]c5n4)cc23)cc1` [MED1007-106, N6-cyclopentyl-N2-(4-phenylquinoline-6-yl)-9H-purine-2,6-diamine], on PI3Kδ, the inhibition at 1 µM was 32.9% and the inhibition at 10 µM came out at 89.1%. Also, on PI3K α, the inhibition at 1 µM was 24.4% and the inhibition at 10 µM is 97.4%.

In the case of `c1ccc(-c2ccnc3ccc(Nc4nc(OC5CCCCC5)c5nc[nH]c5n4)cc23)cc1` [MED1007-107, N-(6-cyclohexyloxy-9H-purine-2-yl)-4-phenyl quinoline-6-amine], at PI3Kδ, the inhibition at 1 µM turned out to be 29.3% and the inhibition at 10 µM was 119%. Further, at PI3K α, the inhibition at 1 µM was determined as 29.9% and the inhibition at 10 µM came out at 65.8%.

The values are drawn from patent publication US9718823B2, “2, 6-Di-nitrogen-containing substituted purine derivative, and preparation method, pharmaceutical composition and use thereof” (Zhejiang Medicine Co., Ltd. Xinchang Pharmaceutical Factory, priority 2013, dated 2017).
